From patent US7183375B2, “Inhibitors for continuous activation for calcineurin” (Agencey of Industrial Science and Technology, priority 2002, dated 2007)
Where a SMILES comes first, the peptide text is derived from it. Where no end group is shown, it is not given here.

Tests used:
[1] = test system: calcineurin subunit A (CaNA); experiment: Cleavage of CaNA in cultured neuronal cells after glutamic acid addition (Western blotting); type: cell-based, Wister rat; conditions: peptides of SEQ Nos. 5 and 6 at 1 μM; glutamic acid 500 μM, 15 minutes; cells collected at 3 hours and 24 hours; FIG. 1
Protocol: (§1) After the brain hippocampus from 18 days embryo of Wister rat had been removed, it was treated with PBS containing 0.05% trypsin for 15 minutes at 37° C. After the neuronal cells were suspended with a glass pipet, 1×10^6 cells were cultured in a 3.5 cm diameter culture dish which was previously coated with poly-D-lysine. As the medium, 3 ml Neuro Basal medium (available from Invitrogen, Inc.) complemented with B27 supplement (0.03 ml; available from Invitrogen, Inc.), penicillin (100 units/ml in the final concentration; available from Invitrogen, Inc.) and streptomycin (100 μg/ml in the final concentration; available from Invitrogen, Inc.) was used and the cultivation was carried out in carbon dioxide incubator (5% CO2, 37° C.).
The peptides of above-mentioned SEQ Nos. 5 and 6 were added in the culture solution with the final concentration of 1 μM 10 days after beginning of culture, and it was incubated in carbon dioxide incubator (5% CO2, 37° C.). Three hours after the addition, glutamic acid was added in the final concentration of 500 μM, and it was incubated for 15 minutes. The culture solution was then exchanged, and it was further cultured. The cells were collected at 3 hours and 24 hours after glutamic acid was added, were disrupted by ultrasonic wave in 1% SDS solution, and the SDS-PAGE buffer was added thereto. […]

neuronal cells = experiment: Neuronal cell death induced by glutamic acid (TUNEL staining, TUNEL positive cell count); type: cell-based, Wister rat; conditions: peptides of SEQ Nos. 5 and 6 1 μM, FK506 1 μM, ALLM 25 μM; glutamic acid 500 μM; TUNEL at 3, 6, 12 or 24 hours; FIG. 2
Protocol: as §1
The neuronal cells were cultured in the same manner as in Example 1, and then the above-mentioned peptides of SEQ Nos. 5 and 6 were added in the final concentration of 1 μM in the same manner as in Example 1. The calcineurin inhibitor, FK506 (available from Fujisawa pharmaceutical Co., Ltd.; the final concentration of 1 μM) or calpain inhibitor, ALLM (available from Merck & Co., Inc.; the final concentration of 25 μM) was added as a control. After 2 hours incubation with each reagent, glutamic acid was added in the final concentration of 500 μM, followed by 15 minutes incubation. […] The TUNEL positive cell was counted.

neuronal cell death = conditions: reported in literature (Morioka 1999; Springer 2000); cited from earlier work

Molecule	cleavage of calcineurin caused by the addition of glutamic acid [1]	neuronal cell death induced by glutamic acid (neuronal cells)	neuronal cell death (neuronal cell death)
cleavage inhibiting peptide: peptides of SEQ Nos. 5 and 6 added together to the culture solution, 1 μM final concentration (chain 1 RRRRRRRRRRFDGATAAARKEVIRNK; chain 2 RRRRRRRRRRREESESVLTLKGLTPTG; also: mixture of two peptides added together)	inhibited	suppressive effect	
cyclosporin A			suppresses neuronal cell death
CSCC[C@@H](C=O)NC(=O)[C@H](CC(C)C)NC(=O)[C@H](CC(C)C)NC(C)=O [ALLM] (Ac-Leu-Leu-Met-aldehyde)		same degree	
